According to article PMC6587462 (Journal of Clinical Pharmacology, 2018):
“Also recorded” adds a separate entry of the source. Read-outs that look alike come from different tables or passages of the source. Blank lines part the entries; values can stand above or below the compound they belong to.

Experiments:
5‐HT3 receptor = molecular target: T1, 5‐HT3 receptor (Homo sapiens, UniProt P46098); details: Helsinn, data on file
T1 sequence (P46098 24-478): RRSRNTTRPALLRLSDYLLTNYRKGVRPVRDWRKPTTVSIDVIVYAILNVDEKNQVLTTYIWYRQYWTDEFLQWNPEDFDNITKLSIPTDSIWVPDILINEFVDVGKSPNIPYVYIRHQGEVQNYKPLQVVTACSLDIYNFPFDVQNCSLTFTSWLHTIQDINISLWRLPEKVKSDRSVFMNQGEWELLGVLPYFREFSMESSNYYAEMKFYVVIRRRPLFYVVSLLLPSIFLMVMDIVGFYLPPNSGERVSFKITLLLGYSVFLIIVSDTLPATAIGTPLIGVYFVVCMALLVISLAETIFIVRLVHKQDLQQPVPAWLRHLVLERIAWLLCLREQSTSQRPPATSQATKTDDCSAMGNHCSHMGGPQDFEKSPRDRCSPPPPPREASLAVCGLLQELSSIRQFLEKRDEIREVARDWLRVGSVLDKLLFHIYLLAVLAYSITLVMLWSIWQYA

[1] = after both IV and oral administration; cited from earlier work
[2] = cited from earlier work
[3] = Oral NEPA PK in cancer patients, summary across studies; format: in vivo; details: human, plasma
[4] = Study 11 population PK, patients (117), NEPA FDC, cited from earlier work
clinical [5] = details: human, in vivo, po
[6] = cited from earlier work; for AUCinf / CL/F / Cmax / Tmax / Vz/F / t1/2: Study 8, healthy volunteers (22), NEPA FDC, mean (CV%)
[7] = Apical-to-basolateral permeability in MDCK II monolayer; format: in vitro ADME, canine; details: dog
NG108‐15 cells = details: netupitant and palonosetron combined; cited from earlier work
clinical [8] = details: human, in vivo
[9] = Study 9 replicate crossover bioequivalence study; format: in vivo, human
[10] = Biopharmaceutics Classification System class and solubility in water; format: physicochemical
[11] = cited from earlier work; remark: listed apart in the source
[12] = Study 12 PK/safety and DDI study in cancer patients; format: in vivo; details: human, plasma, oral
[13] = Binding to plasma proteins; format: in vitro ADME; details: human, plasma
plasma proteins = assay: Binding to plasma proteins; format: in vitro ADME
[14] = parameters: species or system human; details: estimated from t1/2
[15] = Study 11 population PK/pharmacodynamic study in cancer patients; format: in vivo, human; details: population PK modeling in patients
CYP450 isoforms = details: palonosetron; cited from earlier work
[16] = Absolute / oral bioavailability; format: in vivo; details: human, plasma, po
[17] = palonosetron; cited from earlier work
NK1 receptor = NK1 receptor (Homo sapiens, UniProt P25103); details: NG108-15 cells; netupitant and palonosetron combined; cited from earlier work
NK1 receptor, sequence (P25103 whole entry, species assumed): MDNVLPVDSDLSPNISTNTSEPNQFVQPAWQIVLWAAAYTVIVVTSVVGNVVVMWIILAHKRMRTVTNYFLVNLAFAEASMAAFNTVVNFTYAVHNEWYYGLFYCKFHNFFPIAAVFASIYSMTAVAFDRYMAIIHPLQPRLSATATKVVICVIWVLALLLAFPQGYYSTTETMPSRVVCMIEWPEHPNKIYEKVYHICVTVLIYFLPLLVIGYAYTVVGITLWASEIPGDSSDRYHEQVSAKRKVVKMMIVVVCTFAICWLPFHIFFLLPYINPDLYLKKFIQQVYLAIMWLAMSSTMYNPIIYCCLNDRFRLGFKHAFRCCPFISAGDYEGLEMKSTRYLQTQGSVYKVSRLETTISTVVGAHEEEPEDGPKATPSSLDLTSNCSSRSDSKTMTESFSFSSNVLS

[18] = cited from earlier work; remark: listed apart in the source
[19] = absorption, binding, metabolic, or excretory level; cited from earlier work
[20] = Study 4 pilot bioequivalence study, PK after single oral NEPA; format: in vivo; details: human, plasma
[21] = Study 5 bioequivalence study, PK after single oral NEPA; format: in vivo, human
[22] = molecular target: P‐glycoprotein (P‐gp) efflux transporter (Homo sapiens, UniProt P08183); details: in vitro, cited from earlier work
P‐glycoprotein (P‐gp) efflux transporter, sequence (P08183 whole entry): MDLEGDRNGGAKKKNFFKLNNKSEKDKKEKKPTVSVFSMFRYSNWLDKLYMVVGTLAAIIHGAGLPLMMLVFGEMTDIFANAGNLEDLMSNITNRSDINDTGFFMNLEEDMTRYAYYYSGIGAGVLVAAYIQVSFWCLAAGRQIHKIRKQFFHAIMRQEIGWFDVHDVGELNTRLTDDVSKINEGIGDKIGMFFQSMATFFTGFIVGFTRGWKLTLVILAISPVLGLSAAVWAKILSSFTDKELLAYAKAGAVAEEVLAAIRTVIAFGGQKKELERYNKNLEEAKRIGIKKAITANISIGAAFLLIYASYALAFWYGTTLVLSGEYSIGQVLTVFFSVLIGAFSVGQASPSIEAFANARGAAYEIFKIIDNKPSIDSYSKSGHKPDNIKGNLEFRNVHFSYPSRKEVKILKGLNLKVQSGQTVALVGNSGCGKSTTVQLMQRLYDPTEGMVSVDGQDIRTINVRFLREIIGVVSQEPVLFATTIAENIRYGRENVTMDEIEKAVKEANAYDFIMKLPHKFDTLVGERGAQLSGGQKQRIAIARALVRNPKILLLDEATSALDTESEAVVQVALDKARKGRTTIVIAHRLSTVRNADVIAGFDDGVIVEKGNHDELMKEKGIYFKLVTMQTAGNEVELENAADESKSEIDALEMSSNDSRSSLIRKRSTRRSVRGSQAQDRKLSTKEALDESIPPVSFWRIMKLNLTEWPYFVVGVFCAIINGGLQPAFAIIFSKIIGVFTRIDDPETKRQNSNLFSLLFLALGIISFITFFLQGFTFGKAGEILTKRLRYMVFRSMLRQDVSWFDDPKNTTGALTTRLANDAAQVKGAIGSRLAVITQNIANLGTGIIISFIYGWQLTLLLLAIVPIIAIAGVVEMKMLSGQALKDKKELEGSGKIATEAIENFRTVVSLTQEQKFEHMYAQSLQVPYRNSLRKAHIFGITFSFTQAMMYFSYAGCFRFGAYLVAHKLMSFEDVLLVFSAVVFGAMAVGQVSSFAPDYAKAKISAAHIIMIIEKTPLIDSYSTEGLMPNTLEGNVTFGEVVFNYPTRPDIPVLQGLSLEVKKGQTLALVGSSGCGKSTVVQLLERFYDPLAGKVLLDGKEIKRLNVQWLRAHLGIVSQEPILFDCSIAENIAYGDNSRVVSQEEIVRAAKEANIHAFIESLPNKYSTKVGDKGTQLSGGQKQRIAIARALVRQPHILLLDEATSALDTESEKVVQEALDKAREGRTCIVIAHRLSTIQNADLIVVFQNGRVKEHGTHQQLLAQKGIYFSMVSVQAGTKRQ

[23] = calculated logP; cited from earlier work

SMILES: O=C1c2cccc3c2[C@H](CC[C@@H]3O)CN1[C@@H]1CN2CCC1CC2 [6‐S‐hydroxy‐palonosetron]
5-HT3 receptor antagonist activity relative to palonosetron (5‐HT3 receptor): < 1%

SMILES: O=C1c2cccc3c2[C@H](CCC3)CN1[C@@H]1C[N+]2([O-])CCC1CC2 [M9, N‐oxide‐palonosetron]
5-HT3 receptor antagonist activity relative to palonosetron (5‐HT3 receptor): < 1% | fraction of administered palonosetron dose found in urine [1]: approximately 13%

SMILES: C[C@@H](O[C@H]1OCCN(Cc2nc(O)n(P(=O)(O)O)n2)[C@H]1c1ccc(F)cc1)c1cc(C(F)(F)F)cc(C(F)(F)F)c1 [fosaprepitant]
adverse reactions on intravenous administration [2]: injection‐site reactions

AUC(0-inf) [3]: 48.1 to 85.6 ng·h/mL | Cmax [3]: 0.85 to 1.38 ng/mL | Tmax [3]: 3.01 to 5.33 h | Vd/F [3]: 483 to 679 L | AUC(0-inf) (clinical [5]): 33.2 to 56.7 ng·h/mL | Cmax (clinical [5]): 0.768 to 1.53 ng/mL | Tmax (clinical [5]): 3.76 to 4.96 h | Vd/F (clinical [5]): 575 to 962 L | half-life (clinical [5]): 36.9 to 48.3 h | Papp A→B at 0.5 μM [7]: 16 ×10⁻⁶ cm/s | Papp A→B at 50 μM [7]: 65 ×10⁻⁶ cm/s | CL renal (clinical [8]): 89.8 mL/min | CL/F ([9]; Study 9, healthy volunteers (82), NEPA FDC commercial product, mean (CV%)): 11.1 (27.6) L/h | AUC(0-inf) ([9]; human, plasma, oral): 48.2 ng·h/mL | Cmax ([9]; human, plasma, oral): 1.27 ng/mL | Tmax ([9]; human, plasma, oral): 3.76 h | Vd/F ([9]; human, plasma, oral): 575 L | half-life ([9]; human, plasma, oral): 37.2 h | Biopharmaceutics Classification System class [10]: 1 | fraction unbound [13]: 0.38 | binding to plasma proteins (plasma proteins): 62% | fraction from previous NEPA administration eliminated at next dose ([14]; chemotherapy every 2 weeks): more than 99% | fraction from previous NEPA administration eliminated at next dose ([14]; chemotherapy every 3 weeks): 100% | absorption lag time [15]: 0.79 h | absorption rate constant [15]: 2.66 h⁻¹ | bioavailability [16]: ~100% | CL/F (Healthy volunteers, Min-Max of study means, single oral NEPA): 9.6 to 17.9 L/h | plasma concentration as fraction of mean Cmax (at 3 hours after oral NEPA): approximately 80% | Tmax [20]: 4.19 h | Vd/F [20]: 658 L | half-life [20]: 42.1 h | CL/F ([21]; Study 5, healthy volunteers (47), single oral NEPA FDC, mean (CV%)): 9.6 (28.3) L/h | AUC(0-inf) ([21]; human, plasma, po): 56.7 ng·h/mL | Cmax ([21]; human, plasma, po): 1.53 ng/mL | Tmax ([21]; human, plasma, po): 4.68 h | Vd/F ([21]; human, plasma, po): 586 L | half-life ([21]; human, plasma, po): 44.2 h
SMILES: O=C1c2cccc3c2[C@H](CCC3)CN1[C@@H]1CN2CCC1CC2 [palonosetron]
AUCinf ([4]; mean (CV%)): 68.611 (33.4) ng ⋅ h/mL | Cmax ([4]; mean (CV%)): 1.378 (28.3) ng/mL | Tmax ([4]; mean (CV%)): 3.01 (66.4) h | CL/F ([4]; value (%RSE)): 7.6 (%RSE = 3.64) L/h | AUCinf ([6]; fasted): 33.645 (26.7) ng ⋅ h/mL | CL/F ([6]; fasted): 17.9 (34.1) L/h | Cmax ([6]; fasted): 0.786 (28.4) ng/mL | Tmax ([6]; fasted): 4.34 (19.6) h | Vz/F ([6]; fasted): 905 (20.7) L | t1/2 ([6]; fasted): 36.9 (23.6) h | AUCinf ([6]; fed): 33.199 (20.9) ng ⋅ h/mL | CL/F ([6]; fed): 17.8 (28.0) L/h | Cmax ([6]; fed): 0.768 (20.7) ng/mL | Tmax ([6]; fed): 4.96 (24.3) h | Vz/F ([6]; fed): 962 (24.5) L | t1/2 ([6]; fed): 38.9 (29.1) h | AUCinf and Cmax under fed (high-fat breakfast) vs fasting conditions ([6]; open, randomized, 2-way crossover study in healthy volunteers): similar | combined effect on inhibition of substance P-mediated response (NG108‐15 cells): synergistic effects | effect of coadministration of metoclopramide or aprepitant on pharmacokinetics [11]: did not alter | Vd/F [12]: 633 to 679 L | CYP isoforms mediating metabolism (CYP450 isoforms): primarily metabolized by CYP2D6 and to a lesser extent by CYP3A4 and CYP1A2 | solubility in water [17]: freely soluble | fraction of administered palonosetron dose found in urine [1]: approximately 40% | combined effect on triggering NK1 receptor internalization (NK1 receptor): additive effects | t1/2 ([18]; cancer patients, intravenous single dose): 49.8 h | t1/2 ([18]; healthy subjects, intravenous single dose): 37.4 h | PK interaction between netupitant and palonosetron [19]: no relevant PK interactions | substrate of P-gp (MDR1/P-gp) efflux transporter [22]: P‐gp substrate | inhibitor of P-gp efflux transporter ([22]; parent drugs): not an inhibitor; also recorded: not a P‐gp inhibitor | octanol-water partition coefficient (logP) [23]: 2.72

SMILES: C[C@@H](OC[C@@]1(c2ccccc2)CC[C@]2(CCC(=O)N2)CN1)c1cc(C(F)(F)F)cc(C(F)(F)F)c1 [rolapitant]
adverse reactions on intravenous administration [2]: injection‐site reactions | t1/2 [18]: approximately 180 hours
